In PubChem BioAssay (NCI):
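Briefly, cells in 96-well plates were exposed to five compound concentrations for 48 h, and endpoints were estimated by linear interpolation. TGI is the concentration that stops growth completely.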

Experiments:
Experiment in all cases: DTP human tumour cell line panel, 48 h
SK-MEL-28 melanoma = system: SK-MEL-28 melanoma
UO-31 renal = system: UO-31 renal
UACC-257 melanoma = system: UACC-257 melanoma
HCC-2998 colon = system: HCC-2998 colon
TK-10 renal = system: TK-10 renal
A498 renal = system: A498 renal
OVCAR-4 ovarian = system: OVCAR-4 ovarian
NCI-H226 lung = system: NCI-H226 lung
HOP-62 NSCLC = system: HOP-62 NSCLC
EKVX NSCLC = system: EKVX NSCLC
ACHN renal = system: ACHN renal
PC-3 prostate = system: PC-3 prostate
SNB-75 CNS = system: SNB-75 CNS
OVCAR-3 ovarian = system: OVCAR-3 ovarian
K-562 leukemia = system: K-562 leukemia
A549 NSCLC = system: A549 NSCLC
NCI-H522 lung = system: NCI-H522 lung
MCF7 breast = system: MCF7 breast
MDA-MB-435 = system: MDA-MB-435
BT-549 breast = system: BT-549 breast
OVCAR-5 ovarian = system: OVCAR-5 ovarian
SK-MEL-2 melanoma = system: SK-MEL-2 melanoma
HS 578T breast = system: HS 578T breast
HOP-92 NSCLC = system: HOP-92 NSCLC
SK-OV-3 ovarian = system: SK-OV-3 ovarian
RPMI-8226 leukemia = system: RPMI-8226 leukemia
SF-268 CNS = system: SF-268 CNS
COLO 205 colon = system: COLO 205 colon
MOLT-4 leukemia = system: MOLT-4 leukemia
KM12 colon = system: KM12 colon
SW-620 colon = system: SW-620 colon
DU-145 prostate = system: DU-145 prostate
NCI/ADR-RES ovarian = system: NCI/ADR-RES ovarian
IGROV1 ovarian = system: IGROV1 ovarian
U251 CNS = system: U251 CNS
M14 melanoma = system: M14 melanoma
SF-539 CNS = system: SF-539 CNS
OVCAR-8 ovarian = system: OVCAR-8 ovarian
HL-60(TB) leukemia = system: HL-60(TB) leukemia
SN12C renal = system: SN12C renal
HCT-15 colon = system: HCT-15 colon
HT29 colon = system: HT29 colon
CCRF-CEM leukemia = system: CCRF-CEM leukemia
786-0 renal = system: 786-0 renal
UACC-62 melanoma = system: UACC-62 melanoma
SK-MEL-5 melanoma = system: SK-MEL-5 melanoma
HCT-116 colon = system: HCT-116 colon
SNB-19 CNS = system: SNB-19 CNS
MDA-MB-231 breast = system: MDA-MB-231 breast
NCI-H23 lung = system: NCI-H23 lung
CAKI-1 renal = system: CAKI-1 renal
MALME-3M melanoma = system: MALME-3M melanoma
NCI-H460 lung = system: NCI-H460 lung
T-47D breast = system: T-47D breast
SF-295 CNS = system: SF-295 CNS

Measured: TGI

CO[C@]12C[C@@H](CNC(=O)c3cc(Br)c[nH]3)O[C@H]1NC(=O)N2
> 100 µM: all assays above
